Measured values as given in patent US20140303164A1, “THERAPEUTIC COMPOUNDS” (Gilead Sciences, Inc., priority 2013, published 2014).

Tests used:
HIV-IIIb = experiment: Test A: Antiviral Assay in MT4 Cells; type: cell-based, HIV-1; details: Human immunodeficiency virus 1, IIIB, MT4, 120 h; for inhibition at 0.2 µM: read-out: % inhibition at 0.2 μM; for inhibition at 2 µM: read-out: % inhibition at 2 μM
Protocol: Test A: Antiviral Assay in MT4 Cells
MT-4 cells were next mixed with HIV-IIIb at an m.o.i of 0.003 for 1 hour, after which time 35 μL of virus/cell mixture (2000 cells) was immediately added to each well containing 40 μL of diluted compound. The plates were then incubated at 37° C. for 5 days. […] Cell lysis was carried out by incubating at room temperature for 10 min and then chemiluminescence was read.

[1] = Test B: Cytotoxicity Assay; type: cell-based; details: human, uninfected MT-4 cells, same protocol as Test A
In short: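 Uninfected MT-4 cells (2000 per well) incubated with diluted compound at 37° C. for 5 days, following the antiviral protocol without HIV-IIIb.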

SMILES | inhibition at 0.2 µM (HIV-IIIb) | inhibition at 2 µM (HIV-IIIb) | CC50 at 5 days [1]
Cn1nc(NS(=O)(=O)c2cn[nH]c2)c2cccc(-c3ccc(C#CC(C)(C)O)nc3[C@H](Cc3cc(F)cc(F)c3)NC(=O)Cn3nc(C(F)(F)F)c4c3C(F)(F)[C@@H]3C[C@H]43)c21 [Compound 49, 2-((3bS,4aR)-5,5-difluoro-3-(trifluoromethyl)-3b,4,4a,5-tetrahydro-1H-cyclopropa[3,4]cyclopenta[1,2-c]pyrazol-1-yl)-N—((S)-2-(3,5-difluorophenyl)-1-(6-(3-hydroxy-3-methylbut-1-yn-1-yl)-3-(1-methyl-3-(1H-pyrazole-4-sulfonamido)-1H-indazol-7-yl)pyridin-2-yl)ethyl)acetamide] | 87% | 87% | 24 µM
CN(C)c1nn(CC(=O)N[C@@H](Cc2cc(F)cc(F)c2)c2nc(C#CC(C)(C)O)ccc2-c2ccc(Cl)c3c(NS(C)(=O)=O)nn(C)c23)c2c1[C@H]1C[C@H]1C2(F)F [Compound 161, N—((S)-1-(3-(4-chloro-1-methyl-3-(methylsulfonamido)-1H-indazol-7-yl)-6-(3-hydroxy-3-methylbut-1-yn-1-yl)pyridin-2-yl)-2-(3,5-difluorophenyl)ethyl)-2-((3b-S,4aR)-3-(dimethylamino)-5,5-difluoro-3b,4,4a,5-tetrahydro-1H-cyclopropa[3,4]cyclopenta[1,2-c]pyrazol-1-yl)acetamide] | 84% | 84% | 21.8 µM
Cc1ccc(-c2ccc(C#CC(C)(C)C)nc2[C@H](Cc2cc(F)cc(F)c2)NC(=O)Cn2nc(C(F)F)c3c2C(F)(F)[C@@H]2C[C@H]32)c2nnc(N)n12 [Compound 116A, N—((S)-1-(3-(3-amino-5-methyl-[1,2,4]triazolo[4,3-a]pyridin-8-yl)-6-(3,3-dimethylbut-1-yn-1-yl)pyridin-2-yl)-2-(3,5-difluorophenyl)ethyl)-2-((3b-S,4aR)-3-(difluoromethyl)-5,5-difluoro-3b,4,4a,5-tetrahydro-1H-cyclopropa[3,4]cyclopenta[1,2-c]pyrazol-1-yl)acetamide] | 62% | 93% | 10.5 µM
O=C(Cn1nc(C(F)F)c2c1C(F)(F)CCC2(F)F)N[C@@H](Cc1cc(F)cc(F)c1)c1nc(-c2c[nH]nn2)ccc1-c1cnc2[nH]ccc2c1 [Compound 16C, (S)—N-(1-(3-(1H-pyrrolo[2,3-b]pyridin-5-yl)-6-(1H-1,2,3-triazol-4-yl)pyridin-2-yl)-2-(3,5-difluorophenyl)ethyl)-2-(3-(difluoromethyl)-4,4,7,7-tetrafluoro-4,5,6,7-tetrahydro-1H-indazol-1-yl)acetamide] | 23% | 65% | 3.67 µM
Cn1nc(NS(C)(=O)=O)c2c(Cl)ccc(-c3ccc(C#CC(C)(O)CF)nc3[C@H](Cc3cc(F)cc(F)c3)NC(=O)Cn3nc(C(F)F)c4c3C(F)(F)[C@@H]3C[C@H]43)c21 (stereo partly drawn) [Compound 144, N-((1S)-1-(3-(4-chloro-1-methyl-3-(methylsulfonamido)-1H-indazol-7-yl)-6-(4-fluoro-3-hydroxy-3-methylbut-1-yn-1-yl)pyridin-2-yl)-2-(3,5-difluorophenyl)ethyl)-2-((3b-S,4aR)-3-(difluoromethyl)-5,5-difluoro-3b,4,4a,5-tetrahydro-1H-cyclopropa[3,4]cyclopenta[1,2-c]pyrazol-1-yl)acetamide] | 95% | 95% | 16.2 µM
Cn1nc(NS(C)(=O)=O)c2cccc(-c3ccc(C#CC(C)(C)O)nc3[C@H](Cc3cc(F)cc(F)c3)NC(=O)Cn3nc(C(F)F)c4c3C3CC3CC4)c21 (stereo partly drawn) [Compound 43, 2-(3-(difluoromethyl)-5,5a,6,6a-tetrahydrocyclopropa[g]indazol-1(4H)-yl)-N—((S)-2-(3,5-difluorophenyl)-1-(6-(3-hydroxy-3-methylbut-1-yn-1-yl)-3-(1-methyl-3-(methylsulfonamido)-1H-indazol-7-yl)pyridin-2-yl)ethyl)acetamide] | 100% | 100% | 15.4 µM
Cn1nc(NS(C)(=O)=O)c2cccc(-c3ccc(C#CC(C)(C)O)nc3[C@H](Cc3cc(F)cc(F)c3)NC(=O)Cn3nc(C(F)F)c4c3C(F)(F)CCC4(F)F)c21 [Compound 42, (S)-2-(3-(difluoromethyl)-4,4,7,7-tetrafluoro-4,5,6,7-tetrahydro-1H-indazol-1-yl)-N-(2-(3,5-difluorophenyl)-1-(6-(3-hydroxy-3-methylbut-1-yn-1-yl)-3-(1-methyl-3-(methylsulfonamido)-1H-indazol-7-yl)pyridin-2-yl)ethyl)acetamide] | 100% | 100% | 11.8 µM
CCOC(=O)c1nn(CC(=O)N[C@@H](Cc2cc(F)cc(F)c2)c2nc(C#CC(C)(C)O)ccc2-c2ccc(Cl)c3c(NS(C)(=O)=O)nn(C)c23)c2c1[C@H]1C[C@H]1C2(F)F [Compound 158G, (3bS,4aR)-ethyl 1-(2-(((S)-1-(3-(4-chloro-1-methyl-3-(methylsulfonamido)-1H-indazol-7-yl)-6-(3-hydroxy-3-methylbut-1-yn-1-yl)pyridin-2-yl)-2-(3,5-difluorophenyl)ethyl)amino)-2-oxoethyl)-5,5-difluoro-3b,4,4a,5-tetrahydro-1H-cyclopropa[3,4]cyclopenta[1,2-c]pyrazole-3-carboxylate] | 71% | 71% | 26.7 µM
CC(C)(C)C#Cc1ccc(-c2ccc(Cl)n3c(N)nnc23)c([C@H](Cc2cc(F)cc(F)c2)NC(=O)Cn2nc(C(F)F)c3c2C(F)(F)[C@@H]2C[C@H]32)n1 [Compound 115C, N—((S)-1-(3-(3-amino-5-chloro-[1,2,4]triazolo[4,3-a]pyridin-8-yl)-6-(3,3-dimethylbut-1-yn-1-yl)pyridin-2-yl)-2-(3,5-difluorophenyl)ethyl)-2-((3b-S,4aR)-3-(difluoromethyl)-5,5-difluoro-3b,4,4a,5-tetrahydro-1H-cyclopropa[3,4]cyclopenta[1,2-c]pyrazol-1-yl)acetamide] | 84% | 91% | 9.31 µM
Cc1c(-c2ccc(C#CC(C)(C)O)nc2[C@H](Cc2cc(F)cc(F)c2)NC(=O)Cn2nc(C(F)(F)F)c3c2C(F)(F)[C@@H]2C[C@H]32)ccc2n[nH]c(=O)n12 [Compound 27G, 2-((3bS,4aR)-5,5-difluoro-3-(trifluoromethyl)-3b,4,4a,5-tetrahydro-1H-cyclopropa[3,4]cyclopenta[1,2-c]pyrazol-1-yl)-N—((S)-2-(3,5-difluorophenyl)-1-(6-(3-hydroxy-3-methylbut-1-yn-1-yl)-3-(5-methyl-3-oxo-2,3-dihydro-[1,2,4]triazolo[4,3-a]pyridin-6-yl)pyridin-2-yl)ethyl)acetamide] | 89% | 89% | 10.4 µM
Cn1nc(NS(C)(=O)=O)c2c(Cl)ccc(-c3ccc(C#CC(C)(C)O)nc3[C@H](Cc3cc(F)cc(F)c3)NC(=O)Cn3nc4c(c3Cl)[C@H]3C[C@H]3C4(F)F)c21 [Compound 140M, N—((S)-1-(3-(4-chloro-1-methyl-3-(methylsulfonamido)-1H-indazol-7-yl)-6-(3-hydroxy-3-methylbut-1-yn-1-yl)pyridin-2-yl)-2-(3,5-difluorophenyl)ethyl)-2-((3b-S,4aR)-3-chloro-5,5-difluoro-3b,4,4a,5-tetrahydro-2H-cyclopropa[3,4]cyclopenta[1,2-c]pyrazol-2-yl)acetamide] | 98% | 98% | 20.4 µM
